The values that follow come from patent US9493438B2, “4,4-difluoro-piperidine-compounds” (ROTTAPHARM BIOTECH S.R.L., priority 2012, dated 2016).

The target of one experiment is T1, human OX1 receptors (Homo sapiens, UniProt O43613).
T1 construct: expressed in transfected cells; host or cells: CHO cells
T1 sequence (O43613 1-425): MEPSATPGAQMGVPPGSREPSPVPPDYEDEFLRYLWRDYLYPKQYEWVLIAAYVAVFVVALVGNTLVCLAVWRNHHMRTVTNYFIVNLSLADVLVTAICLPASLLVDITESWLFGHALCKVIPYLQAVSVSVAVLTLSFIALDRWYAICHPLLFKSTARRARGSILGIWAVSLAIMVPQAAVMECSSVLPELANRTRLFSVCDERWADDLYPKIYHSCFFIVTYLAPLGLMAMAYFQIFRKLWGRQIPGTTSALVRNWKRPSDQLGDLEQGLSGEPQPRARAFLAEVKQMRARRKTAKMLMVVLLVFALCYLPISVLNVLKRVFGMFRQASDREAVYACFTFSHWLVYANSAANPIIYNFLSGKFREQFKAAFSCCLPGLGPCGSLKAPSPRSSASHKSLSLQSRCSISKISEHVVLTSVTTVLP
As to the kind of experiment: antagonistic activity against human OX1 receptor, [Ca2+]i fluorimetry in transfected CHO cells. The note with it: CHO cells transfected with human recombinant OX1; activated with orexin-A 3 nM; pKb = co-logarithm of apparent dissociation constant (modified Cheng Prusoff). The class given is cell-based. The procedure:
(§1) Thus the plate was loaded with the calcium dye (Fluo-4NW/probenecid in HBSS, Hepes 20 mM, pH 7.4; Invitrogen) at 37° C. for 60 min. Afterward the temperature was equilibrated at 22° C. for 15 min and the [Ca2+]i measured directly on the plate by using a fluorescent plate reader (CeliLux Perkin Elmer).
(§2) Invention compounds were dissolved in DMSO, diluted in HBSS (DMSO, 0.3% final) and added to the wells. After 5 min CHO cells were activated with orexin-A, 3 nM while HEK-293 cells were activated with orexin-B, 10 nM. […] The antagonistic activity has been expressed as pKb (co-logarithm of the apparent dissociation constant calculated by using the modified Cheng Prusoff equation). The results are expressed as percent of control specific […] response ((measured specific response/control specific agonist response)×100) obtained in the presence of the test compounds.
(§3) The IC50 values (concentration causing a half-maximal inhibition of the control specific agonist response) were determinated by non-linear regression analysis of the concentration curves generated with mean replicate values using hill equation curve fitting. The IC50 values are obtained by the arithmetical mean of at least two experiments.

The target in another experiment is T2, human OX2 receptors (Homo sapiens, UniProt O43614).
T2 construct: expressed in transfected cells; host or cells: HEK-293 cells
T2 sequence (O43614 1-444): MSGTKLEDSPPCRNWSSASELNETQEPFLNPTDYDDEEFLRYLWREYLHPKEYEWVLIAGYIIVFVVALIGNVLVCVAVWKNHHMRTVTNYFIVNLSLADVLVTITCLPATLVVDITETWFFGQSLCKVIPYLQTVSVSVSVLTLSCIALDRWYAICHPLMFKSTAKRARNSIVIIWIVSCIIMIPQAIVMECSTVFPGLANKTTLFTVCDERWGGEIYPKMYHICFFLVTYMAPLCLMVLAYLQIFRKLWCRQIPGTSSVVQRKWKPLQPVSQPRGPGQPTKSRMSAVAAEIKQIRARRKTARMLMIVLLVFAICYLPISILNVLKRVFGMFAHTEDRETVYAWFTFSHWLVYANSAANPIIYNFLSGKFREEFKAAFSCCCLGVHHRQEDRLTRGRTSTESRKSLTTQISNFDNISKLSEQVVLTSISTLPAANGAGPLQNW
As to the kind of experiment: antagonistic activity against human OX2 receptor, [Ca2+]i fluorimetry in transfected HEK-293 cells. Type of experiment: cell-based. Conditions: read-out: PKb OX2 (converted). The procedure:
as §1, §2, §3

Molecules are shown by their SMILES.

In the case of `Cc1ccc(-c2ncccn2)c(C(=O)N2CCC(F)(F)CC2CNc2ncc(C(F)(F)F)cc2F)n1` (single isomer, unassigned; isomer a) [Compound 32, (4,4-difluoro-2-(((3-fluoro-5-(trifluoromethyl)pyridin-2-yl)amino)methyl)piperidin-1-yl)(6-methyl-3-(pyrimidin-2-yl)pyridin-2-yl)methanone (isomer A)], the Kb at human OX1 receptors was 0.00251 µM; on human OX2 receptors, 10 µM.

With `O=C(c1nccc2ccccc12)N1CCC(F)(F)CC1CNc1ccc(C(F)(F)F)cn1` (single isomer, unassigned; isomer a) [Compound 41, (4,4-difluoro-2-(((5-(trifluoromethyl)pyridin-2-yl)amino)methyl)piperidin-1-yl)(isoquinolin-1-yl)methanone (isomer A)], the Kb at human OX1 receptors is 0.00158 µM; at human OX2 receptors it was 10 µM.

For `O=C(c1nccc2ccccc12)N1CCC(F)(F)CC1CNc1ccc(Cl)cn1` (single isomer, unassigned; isomer b) [Compound 24, (2-(((5-chloropyridin-2-yl)amino)methyl)-4,4-difluoropiperidin-1-yl)(isoquinolin-1-yl)methanone (isomer B)], the Kb on human OX1 receptors is 0.001 µM; on human OX2 receptors it was 10 µM.

Consider `Cc1ccc(-c2ccccc2)c(C(=O)N2CCC(F)(F)CC2CNc2ccc(C(F)(F)F)cn2)n1` (single isomer, unassigned; isomer b) [Compound 38, (4,4-difluoro-2-(((5-(trifluoromethyl)pyridin-2-yl)amino)methyl)piperidin-1-yl)(6-methyl-3-phenylpyridin-2-yl)methanone (isomer B)], for which the Kb at human OX1 receptors is 0.00316 µM; at human OX2 receptors, 0.126 µM.

`Cc1ccc(OCC2CC2)c(C(=O)N2CCC(F)(F)C[C@H]2CNc2ccc(C(F)(F)F)cn2)n1` [Compound 46, (S)(3-(cyclopropylmethoxy)-6-methylpyridin-2-yl)(4,4-difluoro-2-(((5-(trifluoromethyl)pyridin-2-yl)amino)methyl)piperidin-1-yl)methanone]: the Kb on human OX1 receptors was 0.0158 µM; at human OX2 receptors, 10 µM.
